Columns and labels:
[1] = molecular target: Thromboxane A2 receptor (Homo sapiens) (UniProt P21731); assay: Inhibition of human thromboxane A2 receptor at 10 uM relative to control
[2] = molecular target: Tyrosine 3-monooxygenase (Rattus norvegicus) (UniProt P04177); assay: Inhibition of rat tyrosine hydroxylase at 10 uM relative to control
[3] = molecular target: Somatostatin receptor type 2 (Homo sapiens) (UniProt P30874); assay: Inhibition of human SST2 receptor at 10 uM relative to control
[4] = molecular target: Beta-3 adrenergic receptor (Homo sapiens) (UniProt P13945); assay: Inhibition of human beta3 adrenergic receptor at 10 uM relative to control
[5] = molecular target: T1, GABA-A receptor; alpha-1/beta-3/gamma-2 (Homo sapiens) (UniProt P14867+P18507+P28472); assay: Inhibition of human GABA alpha1beta3gamma2 receptor at 10 uM relative to control; type: protein-complex assay
[6] = molecular target: C-C chemokine receptor type 5 (Homo sapiens) (UniProt P51681); assay: Inhibition of human CCR5 at 10 uM relative to control
[7] = molecular target: Muscarinic acetylcholine receptor M4 (Homo sapiens) (UniProt P08173); assay: Inhibition of human muscarinic M4 receptor at 10 uM relative to control
[8] = molecular target: Vasopressin V2 receptor (Homo sapiens) (UniProt P30518); assay: Inhibition of human V2 receptor at 10 uM relative to control
[9] = molecular target: Adrenergic receptor alpha-1 (Rattus norvegicus) (UniProt P15823+P23944+P43140); assay: Inhibition of rat alpha1 adrenergic receptor at 10 uM relative to control
Caspase-7 (Homo sapiens) = Caspase-7 (Homo sapiens) (UniProt P55210); assay: Inhibition of human caspase 7 at 10 uM relative to control
[10] = molecular target: Neuromedin-K receptor (Homo sapiens) (UniProt P29371); assay: Inhibition of human NK3 receptor at 10 uM relative to control
[11] = molecular target: Beta-1 adrenergic receptor (Homo sapiens) (UniProt P08588); assay: Inhibition of human beta1 adrenergic receptor at 10 uM relative to control
[12] = molecular target: C-C chemokine receptor type 1 (Homo sapiens) (UniProt P32246); assay: Inhibition of human CCR1 at 10 uM relative to control
[13] = molecular target: Nociceptin receptor (Homo sapiens) (UniProt P41146); assay: Inhibition of human ORL1 receptor at 10 uM relative to control
[14] = molecular target: Glutamate NMDA receptor (Rattus norvegicus) (UniProt P35439+Q00959+Q00960+Q00961+Q62645+Q8VHN2+Q9R1M7); assay: Inhibition of rat NMDA receptor glycine binding site at 10 uM relative to control; type: protein-complex assay
[15] = molecular target: Alpha-2C adrenergic receptor (Homo sapiens) (UniProt P18825); assay: Inhibition of human alpha2C adrenergic receptor at 10 uM relative to control
[16] = molecular target: 5-hydroxytryptamine receptor 1B (Rattus norvegicus) (UniProt P28564); assay: Inhibition of rat 5-HT1B receptor at 0.1 uM relative to control
[17] = molecular target: 5-hydroxytryptamine receptor 1B (Rattus norvegicus) (UniProt P28564); assay: Inhibition of rat 5-HT1B receptor at 10 uM relative to control
Cavia porcellus [18] = organism: Cavia porcellus; assay: Inhibition of guinea pig adenosine transporter at 0.1 uM relative to control
[19] = molecular target: Muscarinic acetylcholine receptor M3 (Homo sapiens) (UniProt P20309); assay: Inhibition of human muscarinic M3 receptor at 10 uM relative to control
[20] = molecular target: T1, GABA-A receptor; alpha-1/beta-3/gamma-2 (Homo sapiens); assay: Inhibition of human GABA alpha1beta3gamma2 receptor muscimol binding site at 10 uM relative to control; type: protein-complex assay
[21] = molecular target: T2, 5-hydroxytryptamine receptor 2B (Homo sapiens, UniProt P41595); assay: Inhibition of human 5-HT2B receptor at 0.1 uM relative to control
[22] = molecular target: Galanin receptor type 1 (Homo sapiens) (UniProt P47211); assay: Inhibition of human GAL1 receptor at 10 uM relative to control
[23] = molecular target: T2, 5-hydroxytryptamine receptor 2B; assay: Inhibition of human 5-HT2B receptor at 10 nM relative to control
[24] = molecular target: Endothelin-converting enzyme 1 (Homo sapiens) (UniProt P42892); assay: Inhibition of human ECE-1 at 10 uM relative to control
[25] = molecular target: 5-hydroxytryptamine receptor 1B (Rattus norvegicus) (UniProt P28564); assay: Inhibition of rat 5-HT1B receptor at 10 nM relative to control
[26] = molecular target: Adenosine receptor A2a (Homo sapiens) (UniProt P29274); assay: Inhibition of human adenosine A2A receptor at 10 uM relative to control
Cavia porcellus [27] = organism: Cavia porcellus; assay: Inhibition of guinea pig adenosine transporter at 10 nM relative to control
Caspase-6 (Homo sapiens) = Caspase-6 (Homo sapiens) (UniProt P55212); assay: Inhibition of human caspase 6 at 10 uM relative to control
[28] = molecular target: GABA-A receptor; alpha-5/beta-3/gamma-2 (Homo sapiens) (UniProt P18507+P28472+P31644); assay: Inhibition of human GABA alpha5beta3gamma2 receptor muscimol binding site at 10 uM relative to control; type: protein-complex assay
[29] = molecular target: Vasopressin V1a receptor (Homo sapiens) (UniProt P37288); assay: Inhibition of human V1A receptor at 10 uM relative to control
[30] = molecular target: T3, 5-hydroxytryptamine receptor 1A (Homo sapiens) (UniProt P08908); assay: Inhibition of human 5-HT1A receptor at 10 uM relative to control
T3 sequence (whole entry): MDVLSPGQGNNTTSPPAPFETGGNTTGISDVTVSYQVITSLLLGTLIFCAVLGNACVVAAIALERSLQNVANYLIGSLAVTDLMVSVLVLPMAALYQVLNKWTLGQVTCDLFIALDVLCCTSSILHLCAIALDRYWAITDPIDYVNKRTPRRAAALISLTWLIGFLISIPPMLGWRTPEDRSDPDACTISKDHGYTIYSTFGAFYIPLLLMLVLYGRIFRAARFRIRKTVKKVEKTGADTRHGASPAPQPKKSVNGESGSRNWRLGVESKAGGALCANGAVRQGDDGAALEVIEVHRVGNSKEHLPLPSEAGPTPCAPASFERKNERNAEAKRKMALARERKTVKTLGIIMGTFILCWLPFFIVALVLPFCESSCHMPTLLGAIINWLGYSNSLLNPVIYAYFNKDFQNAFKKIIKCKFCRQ

[31] = molecular target: Cholecystokinin receptor type A (Homo sapiens) (UniProt P32238); assay: Inhibition of human CCKA receptor at 10 uM relative to control
[32] = molecular target: B2 bradykinin receptor (Homo sapiens) (UniProt P30411); assay: Inhibition of human bradykinin B2 receptor at 10 uM relative to control
[33] = molecular target: Substance-P receptor (Homo sapiens) (UniProt P25103); assay: Inhibition of human NK1 receptor at 10 uM relative to control
Rattus norvegicus [34] = organism: Rattus norvegicus; assay: Inhibition of rat N-type calcium channel at 10 uM relative to control
Mu-type opioid receptor = Mu-type opioid receptor (Homo sapiens, UniProt P35372); assay: Inhibition of human mu opioid receptor at 10 nM relative to control
Rattus norvegicus [35] = organism: Rattus norvegicus; assay: Inhibition of rat GABAB receptor at 10 uM relative to control
[36] = molecular target: Prostaglandin E2 receptor EP4 subtype (Homo sapiens) (UniProt P35408); assay: Inhibition of human prostanoid EP4 receptor at 10 uM relative to control
Sequence of Prostaglandin E2 receptor EP4 subtype (Homo sapiens) (P35408 whole entry): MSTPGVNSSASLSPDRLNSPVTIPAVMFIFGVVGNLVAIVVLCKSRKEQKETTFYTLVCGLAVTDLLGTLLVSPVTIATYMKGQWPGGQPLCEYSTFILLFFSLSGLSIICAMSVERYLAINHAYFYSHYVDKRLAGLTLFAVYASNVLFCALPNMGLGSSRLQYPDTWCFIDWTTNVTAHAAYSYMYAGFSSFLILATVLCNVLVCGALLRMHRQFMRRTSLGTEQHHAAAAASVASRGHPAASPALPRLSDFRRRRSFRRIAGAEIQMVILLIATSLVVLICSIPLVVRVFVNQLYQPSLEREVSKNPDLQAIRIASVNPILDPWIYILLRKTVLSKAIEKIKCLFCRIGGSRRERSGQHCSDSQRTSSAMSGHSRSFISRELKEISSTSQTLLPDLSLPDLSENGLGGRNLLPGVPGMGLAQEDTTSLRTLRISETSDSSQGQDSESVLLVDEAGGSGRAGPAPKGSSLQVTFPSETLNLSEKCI

Sequence of 5-hydroxytryptamine receptor 1B (Rattus norvegicus) (P28564 whole entry): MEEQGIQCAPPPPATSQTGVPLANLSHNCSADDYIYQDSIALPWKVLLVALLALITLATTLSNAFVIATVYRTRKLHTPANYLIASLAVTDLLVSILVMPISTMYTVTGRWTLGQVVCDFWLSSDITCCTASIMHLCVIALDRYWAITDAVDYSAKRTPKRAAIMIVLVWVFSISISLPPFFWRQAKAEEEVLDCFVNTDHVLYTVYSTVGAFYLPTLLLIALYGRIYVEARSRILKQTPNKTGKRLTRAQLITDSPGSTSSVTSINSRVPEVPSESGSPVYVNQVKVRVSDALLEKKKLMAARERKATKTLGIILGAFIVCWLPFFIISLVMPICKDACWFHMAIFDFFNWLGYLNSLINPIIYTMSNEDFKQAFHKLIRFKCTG
T2 sequence (P41595 whole entry): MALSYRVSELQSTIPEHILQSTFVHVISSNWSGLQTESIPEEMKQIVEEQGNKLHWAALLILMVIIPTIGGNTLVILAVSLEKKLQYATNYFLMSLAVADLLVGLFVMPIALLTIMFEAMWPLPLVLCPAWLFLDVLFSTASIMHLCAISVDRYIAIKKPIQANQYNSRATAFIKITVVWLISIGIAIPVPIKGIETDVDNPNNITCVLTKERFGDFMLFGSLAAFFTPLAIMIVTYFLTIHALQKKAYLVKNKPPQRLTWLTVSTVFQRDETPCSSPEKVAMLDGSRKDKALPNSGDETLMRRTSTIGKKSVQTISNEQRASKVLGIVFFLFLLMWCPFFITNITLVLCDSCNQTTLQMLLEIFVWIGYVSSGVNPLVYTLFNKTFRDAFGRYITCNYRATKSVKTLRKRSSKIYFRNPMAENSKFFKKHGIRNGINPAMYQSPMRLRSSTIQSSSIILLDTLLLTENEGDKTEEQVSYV
Sequence of Beta-3 adrenergic receptor (Homo sapiens) (P13945 whole entry, looked up): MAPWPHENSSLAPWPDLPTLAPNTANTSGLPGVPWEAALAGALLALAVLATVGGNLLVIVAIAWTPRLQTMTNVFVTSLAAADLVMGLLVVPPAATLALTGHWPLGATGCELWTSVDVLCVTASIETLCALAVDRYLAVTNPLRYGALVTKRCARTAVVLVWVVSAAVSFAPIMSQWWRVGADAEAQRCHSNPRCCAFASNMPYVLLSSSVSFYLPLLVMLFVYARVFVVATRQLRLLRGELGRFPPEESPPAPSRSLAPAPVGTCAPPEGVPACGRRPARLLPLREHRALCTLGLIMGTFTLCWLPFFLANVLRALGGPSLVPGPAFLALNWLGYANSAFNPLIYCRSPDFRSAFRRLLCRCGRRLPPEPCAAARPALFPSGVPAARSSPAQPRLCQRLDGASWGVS
Sequence of C-C chemokine receptor type 5 (Homo sapiens) (P51681 whole entry, looked up): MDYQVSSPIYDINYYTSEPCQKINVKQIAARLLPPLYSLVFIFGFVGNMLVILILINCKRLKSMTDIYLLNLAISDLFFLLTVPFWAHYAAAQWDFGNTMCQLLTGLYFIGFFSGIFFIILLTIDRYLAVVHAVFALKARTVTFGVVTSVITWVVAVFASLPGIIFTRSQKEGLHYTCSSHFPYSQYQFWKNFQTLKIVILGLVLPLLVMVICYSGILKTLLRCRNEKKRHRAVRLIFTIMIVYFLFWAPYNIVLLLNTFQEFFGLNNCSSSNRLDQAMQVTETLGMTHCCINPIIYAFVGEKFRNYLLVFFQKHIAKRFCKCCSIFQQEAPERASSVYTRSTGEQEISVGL
Sequence of Neuromedin-K receptor (Homo sapiens) (P29371 whole entry): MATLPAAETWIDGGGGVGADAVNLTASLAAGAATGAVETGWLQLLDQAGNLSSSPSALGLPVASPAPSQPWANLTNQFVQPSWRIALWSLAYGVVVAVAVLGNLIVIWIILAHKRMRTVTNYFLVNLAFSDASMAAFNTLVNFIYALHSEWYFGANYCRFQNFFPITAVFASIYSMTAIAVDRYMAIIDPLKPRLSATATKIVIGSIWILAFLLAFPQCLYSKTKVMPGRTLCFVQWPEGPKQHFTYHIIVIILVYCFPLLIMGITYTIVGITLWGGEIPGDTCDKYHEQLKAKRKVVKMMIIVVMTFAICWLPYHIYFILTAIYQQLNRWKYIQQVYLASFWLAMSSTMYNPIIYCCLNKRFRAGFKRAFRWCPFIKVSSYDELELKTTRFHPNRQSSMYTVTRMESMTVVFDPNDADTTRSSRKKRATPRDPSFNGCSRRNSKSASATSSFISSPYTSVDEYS
Sequence of Galanin receptor type 1 (Homo sapiens) (P47211 whole entry): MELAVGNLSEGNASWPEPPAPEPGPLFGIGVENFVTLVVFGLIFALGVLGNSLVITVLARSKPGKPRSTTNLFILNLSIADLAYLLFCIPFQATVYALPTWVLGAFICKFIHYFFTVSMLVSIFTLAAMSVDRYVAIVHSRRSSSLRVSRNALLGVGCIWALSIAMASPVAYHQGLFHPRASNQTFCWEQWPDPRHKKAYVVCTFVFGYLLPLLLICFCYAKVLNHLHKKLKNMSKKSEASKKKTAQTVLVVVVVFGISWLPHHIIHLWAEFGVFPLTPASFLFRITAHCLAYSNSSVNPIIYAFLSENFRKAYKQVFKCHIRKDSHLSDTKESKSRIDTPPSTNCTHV
Sequence of Tyrosine 3-monooxygenase (Rattus norvegicus) (P04177 whole entry): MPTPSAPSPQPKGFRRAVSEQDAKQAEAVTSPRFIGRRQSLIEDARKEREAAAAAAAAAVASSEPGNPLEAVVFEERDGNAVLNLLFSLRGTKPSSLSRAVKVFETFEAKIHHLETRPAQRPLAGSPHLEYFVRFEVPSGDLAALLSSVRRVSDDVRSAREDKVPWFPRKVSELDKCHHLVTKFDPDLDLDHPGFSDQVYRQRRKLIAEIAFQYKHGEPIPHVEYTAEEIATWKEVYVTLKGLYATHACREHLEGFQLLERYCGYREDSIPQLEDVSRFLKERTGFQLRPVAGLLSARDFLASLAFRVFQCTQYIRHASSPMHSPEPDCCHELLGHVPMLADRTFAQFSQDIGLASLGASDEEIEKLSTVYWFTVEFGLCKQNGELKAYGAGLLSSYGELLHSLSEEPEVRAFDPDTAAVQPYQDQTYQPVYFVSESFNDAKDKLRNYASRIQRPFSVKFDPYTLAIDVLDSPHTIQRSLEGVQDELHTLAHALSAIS
Sequence of Muscarinic acetylcholine receptor M3 (Homo sapiens) (P20309 whole entry, looked up): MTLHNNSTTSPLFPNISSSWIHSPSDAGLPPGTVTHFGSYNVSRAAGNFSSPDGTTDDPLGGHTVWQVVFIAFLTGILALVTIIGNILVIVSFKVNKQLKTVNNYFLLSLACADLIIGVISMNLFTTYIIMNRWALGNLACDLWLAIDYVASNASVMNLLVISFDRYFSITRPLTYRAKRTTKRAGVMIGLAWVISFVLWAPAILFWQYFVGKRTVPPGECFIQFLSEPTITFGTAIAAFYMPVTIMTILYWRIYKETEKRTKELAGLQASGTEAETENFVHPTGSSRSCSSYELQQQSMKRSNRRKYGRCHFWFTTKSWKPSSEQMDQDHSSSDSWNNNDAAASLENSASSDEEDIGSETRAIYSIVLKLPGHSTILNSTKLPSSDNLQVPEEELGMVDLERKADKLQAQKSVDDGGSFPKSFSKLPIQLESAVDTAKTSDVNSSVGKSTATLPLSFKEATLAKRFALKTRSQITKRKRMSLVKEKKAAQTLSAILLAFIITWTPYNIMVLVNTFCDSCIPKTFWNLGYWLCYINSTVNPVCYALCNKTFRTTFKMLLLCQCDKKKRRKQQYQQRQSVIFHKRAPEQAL
Sequence of Caspase-6 (Homo sapiens) (P55212 24-179 limits assumed): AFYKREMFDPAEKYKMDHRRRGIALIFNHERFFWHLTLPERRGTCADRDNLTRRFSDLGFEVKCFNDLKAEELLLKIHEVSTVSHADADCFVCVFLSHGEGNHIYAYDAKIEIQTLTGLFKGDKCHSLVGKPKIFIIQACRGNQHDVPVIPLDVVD
Sequence of Caspase-6 (Homo sapiens) (P55212 194-293 limits assumed): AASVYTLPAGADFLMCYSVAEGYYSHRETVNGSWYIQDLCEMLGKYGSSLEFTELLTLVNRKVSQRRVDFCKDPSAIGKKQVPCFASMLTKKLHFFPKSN
Sequence of Muscarinic acetylcholine receptor M4 (Homo sapiens) (P08173 whole entry): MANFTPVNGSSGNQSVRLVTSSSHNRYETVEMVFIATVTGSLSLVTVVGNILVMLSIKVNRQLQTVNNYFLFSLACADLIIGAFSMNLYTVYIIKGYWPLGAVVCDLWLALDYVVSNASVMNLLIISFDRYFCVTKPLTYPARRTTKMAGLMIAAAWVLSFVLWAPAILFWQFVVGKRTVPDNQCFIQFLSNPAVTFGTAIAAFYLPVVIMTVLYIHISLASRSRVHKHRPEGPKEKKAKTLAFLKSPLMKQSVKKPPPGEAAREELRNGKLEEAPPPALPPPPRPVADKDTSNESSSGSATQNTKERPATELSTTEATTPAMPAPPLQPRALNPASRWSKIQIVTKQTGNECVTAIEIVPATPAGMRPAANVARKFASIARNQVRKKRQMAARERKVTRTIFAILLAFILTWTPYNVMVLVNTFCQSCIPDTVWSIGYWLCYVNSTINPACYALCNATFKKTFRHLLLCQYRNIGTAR

COc1ccc(CNC(=O)c2cc(-c3cc(Cl)cc(Cl)c3)cnc2-c2cccnc2)cc1OC
inhibition [1]: 17%
inhibition [2]: -3%
inhibition [3]: -3%
inhibition [4]: 24%
inhibition [5]: 21%
inhibition [6]: 11%
inhibition [7]: 7%
inhibition [8]: 0%
inhibition [9]: -4%
inhibition (Caspase-7 (Homo sapiens)): 1%
inhibition [10]: 13%
inhibition [11]: 9%
inhibition [12]: 21%
inhibition [13]: 9%
inhibition [14]: 9%
inhibition [15]: 5%
inhibition [16]: 9%
inhibition [17]: 73%
inhibition (Cavia porcellus [18]): 15%
inhibition [19]: -2%
inhibition [20]: 39%
inhibition [21]: 6%
inhibition [22]: 3%
inhibition [23]: 6%
inhibition [24]: -10%
inhibition [25]: -4%
inhibition [26]: 8%
inhibition (Cavia porcellus [27]): 2%
inhibition (Caspase-6 (Homo sapiens)): 7%
inhibition [28]: 14%
inhibition [29]: 0%
inhibition [30]: 69%
inhibition [31]: 9%
inhibition [32]: -10%
inhibition [33]: 26%
inhibition (Rattus norvegicus [34]): 2%
inhibition (Mu-type opioid receptor): -3%
inhibition (Rattus norvegicus [35]): 0%
inhibition [36]: 19%
